Assay results reported in US20240252463A1, “METHODS OF TREATING FIBROTIC PATHOLOGIES” (Mayo Foundation for Medical Education and Research, priority 2018, published 2024).
Structures can show the parent of a compound that is named as a salt. Where two headings read alike, the source gives them in different places.

What was measured:
[1] = system: YAP/TAZ; test: YAP/TAZ nuclear localization (immunofluorescence, automated imaging) in IPF patient-derived lung fibroblasts; assay type: cell-based, human; details: 10 μM, treated 2 hours prior to fixation; for Nuclear localization (% of total cells) IPF-1: patient sample IPF-1; for Nuclear localization (% of total cells) IPF-2: patient sample IPF-2; for Nuclear localization (% of total cells) IPF-3: patient sample IPF-3; for Nuclear localization (% of total cells) IPF-4: patient sample IPF-4
Procedure: 27A. […] IPF patient-derived lung fibroblasts cells treated 2 hours prior to fixation with diverse dopaminergic agonists (10 μM). N=4 different patient samples. % nuclear localization of YAP/TAZ was determined using automated imaging software. Scale bar represents 100 μm. 27C. cAMP measured in IPF patient-derived fibroblasts treated for 20 minutes with DHX. N=3. 27E.
(§1) ImmunofluorescenceMicroscopy: Cells were plated into 96 well plates (Corning 3603) in their specific growth media and allowed to attach (8 hours). Media was then exchanged for the indicated conditions for each experiment. Cells were fixed in 3.7% formalin (Sigma-Aldrich), permeabilized in 0.25% Triton X-100 (Sigma-Aldrich) and then blocked with 1% BSA for 1 h. Cells or tissue sections were incubated overnight with mouse monoclonal antibody against αSMA (Sigma-Aldrich F3777), and/or a rabbit monoclonal antibody against YAP/TAZ (Cell Signaling D24E4) diluted 1:200 in PBS with 1% BSA. Cells were then washed and exposed to flourescence-conjugated secondary antibodies (Invitrogen) diluted 1:1000 and DAPI (Thermo Fisher Scientific). Images were taken with a Cytation5 (BioTek) microscope. For scoring αSMA positive cells (FIG. 3b), an observer blinded to the treatment conditions counted αSMA-positive cells using a visual threshold for bright fibrous staining; a minimum of 200 cells was counted for each condition. YAP/TAZ localization was quantified (FIG. 2, 6, 8) using Gen5 (Biotek) software. Images were taken at 4× magnification of both DAPI and YAP/TAZ staining. […] Quantification of double positive (YAP/TAZ and αSMA) cells from lung tissue sections (FIG. 4d) was performed similarly; however separate thresholds were established for both YAP/TAZ and αSMA. A minimum of 4000 cells was quantified for each mouse.

[2] = system: αSMA; test: αSMA intensity (fibroblast activation) in IPF patient-derived lung fibroblasts + TGFβ; assay type: cell-based, human; details: 1 μM + TGFβ, treated for 72 hours; for activity at 1 µM: Homo sapiens, SMA
Procedure: as §1

[3] = patient sample IPF-1, read-out: αSMA intensity (% of DMSO control) IPF-1
[4] = patient sample IPF-2, read-out: αSMA intensity (% of DMSO control) IPF-2
[5] = patient sample IPF-3, read-out: αSMA intensity (% of DMSO control) IPF-3
[6] = patient sample IPF-4, read-out: αSMA intensity (% of DMSO control) IPF-4

Row | Molecule | Nuclear localization (% of total cells) IPF-1 [1] | Nuclear localization (% of total cells) IPF-2 [1] | Nuclear localization (% of total cells) IPF-3 [1] | Nuclear localization (% of total cells) IPF-4 [1] | activity at 1 µM [2, 3] | activity at 1 µM [2, 4] | activity at 1 µM [2, 5] | activity at 1 µM [2, 6] | αSMA intensity (% of DMSO control) IPF-1 ([2]; patient sample IPF-1) | αSMA intensity (% of DMSO control) IPF-2 ([2]; patient sample IPF-2) | αSMA intensity (% of DMSO control) IPF-3 ([2]; patient sample IPF-3) | αSMA intensity (% of DMSO control) IPF-4 ([2]; patient sample IPF-4)
1 | NCCc1cccc(O)c1 [3-Hydroxyphenethylamine•HCl, 3-Hydroxyphenethylamine] | 48.96 % of total cells | 56.92 % of total cells | 69.25 % of total cells | 58.37 % of total cells | 88.6% | 96.7% | 82.6% | 99.8% | – | – | – | –
2 | Br.NC1CCc2cc(O)c(O)cc2C1 (stereo not drawn) [6,7-ADTN•HBr, 6,7-ADTN] | 43.89 % of total cells | 44 % of total cells | 65.5 % of total cells | 52.65 % of total cells | – | – | – | – | 37.14 % of DMSO control | 4.182 % of DMSO control | 9.909 % of DMSO control | 4.888 % of DMSO control
3 | CCCN(CCC)[C@@H]1CCc2c(OC)cccc2[C@@H]1C.O=C(O)/C=C\C(=O)O [(+)-UH 232 maleate] | 61.9521 % of total cells | 68 % of total cells | 71.85 % of total cells | 67.27 % of total cells | – | – | – | – | 82.91 % of DMSO control | 63.85 % of DMSO control | 85.81 % of DMSO control | 65.71 % of DMSO control
4 | NC[C@@H]1O[C@H](C23CC4CC(CC(C4)C2)C3)Cc2c1ccc(O)c2O [A-77636•HCl•H2O] | 26.46 % of total cells | 30.88 % of total cells | 41.33 % of total cells | 37.79 % of total cells | 5.81% | 0.719% | 0.0677% | 12.4% | – | – | – | –
5 | C=CCN1CCc2nc(N)sc2CC1.Cl.Cl [B-HT 920•2HCl] | 75.68 % of total cells | 46.9 % of total cells | 64.79 % of total cells | 76.24 % of total cells | – | – | – | – | 74.98 % of DMSO control | 58.97 % of DMSO control | 70.12 % of DMSO control | 54.23 % of DMSO control
6 | CN1Cc2ccccc2C2c3cccc4[nH]cc(c34)CC21 (stereo not drawn) [CY 208-243] | 20.52 % of total cells | 39.79 % of total cells | 41.17 % of total cells | 19.82 % of total cells | 21% | 2.28% | 2.61% | 9.64% | – | – | – | –
7 | CCCN(CCC)CCc1ccc(O)c(O)c1 [Dipropyldopamine•HBr, Dipropyldopamine] | 69.18 % of total cells | 74.36 % of total cells | 65.5 % of total cells | 51.82 % of total cells | – | – | – | – | 48.72 % of DMSO control | 28.11 % of DMSO control | 40.34 % of DMSO control | 25.86 % of DMSO control
8 | CCCN1CCC[C@@H]2Cc3nc(N)ncc3C[C@H]21.Cl.Cl [LY-163,502•2HCl] | 73.37 % of total cells | 60.97 % of total cells | 59.43 % of total cells | 66.49 % of total cells | – | – | – | – | 88.99 % of DMSO control | 72.86 % of DMSO control | 75.3 % of DMSO control | 86.7894 % of DMSO control
9 | CNCCc1ccc(O)c(O)c1 [N-Methyldopamine•HCl, N-Methyldopamine] | 43.16 % of total cells | 46.73 % of total cells | 60.11 % of total cells | 70.44 % of total cells | 43.2% | 17.7% | 29% | 14.7% | – | – | – | –
10 | Cc1cccc(C(=O)NCN2CCN(c3ccccc3C#N)CC2)c1.O=C(O)/C=C\C(=O)O [PD 168077 maleate] | 67.08 % of total cells | 42.44 % of total cells | 63.68 % of total cells | 68.4 % of total cells | – | – | – | – | 75.27 % of DMSO control | 56.15 % of DMSO control | 75.77 % of DMSO control | 66.5 % of DMSO control
11 | Br.C=CCN1CCc2c(cc(O)c(O)c2Br)[C@@H](c2ccccc2)C1 [R(+)-6-BROMO-APB•HBr, R(+)-6-bromo-APB] | 28.37 % of total cells | 38 % of total cells | 36 % of total cells | 25.65 % of total cells | – | – | – | – | 11.25 % of DMSO control | 2.507 % of DMSO control | 0.8506 % of DMSO control | 22.82 % of DMSO control
12 | Br.CCCN1CCc2cc(O)cc3c2[C@H]1Cc1ccc(O)c(O)c1-3 [R(−)-2,10,11-Trihydroxy-N-propyl-noraporphine] | 32.87 % of total cells | 35.25 % of total cells | 37.7 % of total cells | 25.36 % of total cells | – | – | – | – | 4.895 % of DMSO control | 8.436 % of DMSO control | 2.988 % of DMSO control | 25.61 % of DMSO control
13 | COc1ccc2c(c1O)-c1cc(O)cc3c1[C@@H](C2)N(C)CC3.Cl [R(−)-2,11-dihydroxy-10-methoxyapomorphine] | 85.18 % of total cells | 74.67 % of total cells | 80.73 % of total cells | 80.45 % of total cells | – | – | – | – | 91.84 % of DMSO control | 92.8 % of DMSO control | 81.85 % of DMSO control | 85.61 % of DMSO control
14 | (R)-(−)-Apomorphine [(R)-(−)-Apomorphine•HCl] | 29.21 % of total cells | 31.97 % of total cells | 27.47 % of total cells | 17.86 % of total cells | – | – | – | – | 7.067 % of DMSO control | 1.173 % of DMSO control | 0.9618 % of DMSO control | 33.67 % of DMSO control
15 | R(−)-2,10,11-Trihydroxyaporphine [R(−)-2,10,11-Trihydroxyaporphine•HBr] | 13.71 % of total cells | 22.15 % of total cells | 24.15 % of total cells | 17.75 % of total cells | – | – | – | – | 2.888 % of DMSO control | 1.698 % of DMSO control | 7.646 % of DMSO control | 15.9942 % of DMSO control
